Measurements from ChEMBL document CHEMBL4190382, “Targeting lysine specific demethylase 4A (KDM4A) tandem TUDOR domain - A fragment based approach” (Bioorg Med Chem Lett, 2018).
Where a chain is given by its changes, count along the chain named. The source made the active and inactive calls. No cut-off for these calls is given here.

Tests used:
[1] = system: T1, Lysine-specific demethylase 4A (Homo sapiens), O75164 [W967A]; test: Binding affinity to thrombin cleavable N-terminal 6His tagged and 13C-IVLM labeled human KDM4A tandem TUDOR domain (897 to 1011 residues) W967A mutant expressed in Escherichia coli BL21(DE3)-T1R by ITC method
T1 sequence (whole entry): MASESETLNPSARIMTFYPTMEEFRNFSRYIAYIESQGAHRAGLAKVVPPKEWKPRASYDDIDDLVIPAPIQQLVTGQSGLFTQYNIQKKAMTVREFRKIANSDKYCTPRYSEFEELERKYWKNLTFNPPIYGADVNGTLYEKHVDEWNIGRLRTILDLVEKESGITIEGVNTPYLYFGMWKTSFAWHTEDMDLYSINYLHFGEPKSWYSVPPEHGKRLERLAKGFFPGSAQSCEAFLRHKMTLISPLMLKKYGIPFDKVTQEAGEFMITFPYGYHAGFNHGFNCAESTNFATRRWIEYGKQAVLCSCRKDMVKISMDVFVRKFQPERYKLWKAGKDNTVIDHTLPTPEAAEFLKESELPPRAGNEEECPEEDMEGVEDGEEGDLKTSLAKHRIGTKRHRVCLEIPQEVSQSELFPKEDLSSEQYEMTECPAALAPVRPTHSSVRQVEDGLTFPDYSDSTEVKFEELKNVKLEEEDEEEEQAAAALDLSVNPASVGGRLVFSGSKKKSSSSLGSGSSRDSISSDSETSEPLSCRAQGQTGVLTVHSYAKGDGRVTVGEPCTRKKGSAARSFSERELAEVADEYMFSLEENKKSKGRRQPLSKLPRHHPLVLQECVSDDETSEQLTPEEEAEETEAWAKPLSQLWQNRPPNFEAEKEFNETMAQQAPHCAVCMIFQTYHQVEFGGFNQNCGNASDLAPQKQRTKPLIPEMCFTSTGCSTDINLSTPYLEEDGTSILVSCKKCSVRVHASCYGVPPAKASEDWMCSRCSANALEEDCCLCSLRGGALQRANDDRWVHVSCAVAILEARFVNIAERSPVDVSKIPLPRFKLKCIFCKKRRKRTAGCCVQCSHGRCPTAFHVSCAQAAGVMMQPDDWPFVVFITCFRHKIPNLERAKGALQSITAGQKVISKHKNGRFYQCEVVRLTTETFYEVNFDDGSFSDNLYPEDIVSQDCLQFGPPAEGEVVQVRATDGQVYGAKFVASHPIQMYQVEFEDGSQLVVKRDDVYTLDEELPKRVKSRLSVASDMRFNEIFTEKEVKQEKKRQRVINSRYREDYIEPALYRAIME

TP53-binding protein 1 = TP53-binding protein 1 (Homo sapiens, UniProt Q12888); test: Binding affinity to 6His-tagged and human 53BP1 tandem TUDOR domain (1488 to 1611 residues) expressed in Escherichia coli BL21(DE3)-T1R by ITC method
[2] = biological target: T2, Lysine-specific demethylase 4A (Homo sapiens) (UniProt O75164); test: (§1) Inhibition of NanoLuc-KDM4A-TUDOR domain (unknown origin) binding to Histone H3.3-HaloTag expressed in 293T cells incubated for 18 hrs by Nano-BRET based target engagement assay; type: cell-based
T2 sequence (whole entry): T1 sequence (whole entry) with A967W

[3] = biological target: T3, Lysine-specific demethylase 4A (Homo sapiens, UniProt O75164); test: as §1; type: cell-based
T3 sequence (O75164 whole entry): T1 sequence (whole entry) with A967W

Chain of TP53-binding protein 1 (Q12888 whole entry, the tested form may be a part): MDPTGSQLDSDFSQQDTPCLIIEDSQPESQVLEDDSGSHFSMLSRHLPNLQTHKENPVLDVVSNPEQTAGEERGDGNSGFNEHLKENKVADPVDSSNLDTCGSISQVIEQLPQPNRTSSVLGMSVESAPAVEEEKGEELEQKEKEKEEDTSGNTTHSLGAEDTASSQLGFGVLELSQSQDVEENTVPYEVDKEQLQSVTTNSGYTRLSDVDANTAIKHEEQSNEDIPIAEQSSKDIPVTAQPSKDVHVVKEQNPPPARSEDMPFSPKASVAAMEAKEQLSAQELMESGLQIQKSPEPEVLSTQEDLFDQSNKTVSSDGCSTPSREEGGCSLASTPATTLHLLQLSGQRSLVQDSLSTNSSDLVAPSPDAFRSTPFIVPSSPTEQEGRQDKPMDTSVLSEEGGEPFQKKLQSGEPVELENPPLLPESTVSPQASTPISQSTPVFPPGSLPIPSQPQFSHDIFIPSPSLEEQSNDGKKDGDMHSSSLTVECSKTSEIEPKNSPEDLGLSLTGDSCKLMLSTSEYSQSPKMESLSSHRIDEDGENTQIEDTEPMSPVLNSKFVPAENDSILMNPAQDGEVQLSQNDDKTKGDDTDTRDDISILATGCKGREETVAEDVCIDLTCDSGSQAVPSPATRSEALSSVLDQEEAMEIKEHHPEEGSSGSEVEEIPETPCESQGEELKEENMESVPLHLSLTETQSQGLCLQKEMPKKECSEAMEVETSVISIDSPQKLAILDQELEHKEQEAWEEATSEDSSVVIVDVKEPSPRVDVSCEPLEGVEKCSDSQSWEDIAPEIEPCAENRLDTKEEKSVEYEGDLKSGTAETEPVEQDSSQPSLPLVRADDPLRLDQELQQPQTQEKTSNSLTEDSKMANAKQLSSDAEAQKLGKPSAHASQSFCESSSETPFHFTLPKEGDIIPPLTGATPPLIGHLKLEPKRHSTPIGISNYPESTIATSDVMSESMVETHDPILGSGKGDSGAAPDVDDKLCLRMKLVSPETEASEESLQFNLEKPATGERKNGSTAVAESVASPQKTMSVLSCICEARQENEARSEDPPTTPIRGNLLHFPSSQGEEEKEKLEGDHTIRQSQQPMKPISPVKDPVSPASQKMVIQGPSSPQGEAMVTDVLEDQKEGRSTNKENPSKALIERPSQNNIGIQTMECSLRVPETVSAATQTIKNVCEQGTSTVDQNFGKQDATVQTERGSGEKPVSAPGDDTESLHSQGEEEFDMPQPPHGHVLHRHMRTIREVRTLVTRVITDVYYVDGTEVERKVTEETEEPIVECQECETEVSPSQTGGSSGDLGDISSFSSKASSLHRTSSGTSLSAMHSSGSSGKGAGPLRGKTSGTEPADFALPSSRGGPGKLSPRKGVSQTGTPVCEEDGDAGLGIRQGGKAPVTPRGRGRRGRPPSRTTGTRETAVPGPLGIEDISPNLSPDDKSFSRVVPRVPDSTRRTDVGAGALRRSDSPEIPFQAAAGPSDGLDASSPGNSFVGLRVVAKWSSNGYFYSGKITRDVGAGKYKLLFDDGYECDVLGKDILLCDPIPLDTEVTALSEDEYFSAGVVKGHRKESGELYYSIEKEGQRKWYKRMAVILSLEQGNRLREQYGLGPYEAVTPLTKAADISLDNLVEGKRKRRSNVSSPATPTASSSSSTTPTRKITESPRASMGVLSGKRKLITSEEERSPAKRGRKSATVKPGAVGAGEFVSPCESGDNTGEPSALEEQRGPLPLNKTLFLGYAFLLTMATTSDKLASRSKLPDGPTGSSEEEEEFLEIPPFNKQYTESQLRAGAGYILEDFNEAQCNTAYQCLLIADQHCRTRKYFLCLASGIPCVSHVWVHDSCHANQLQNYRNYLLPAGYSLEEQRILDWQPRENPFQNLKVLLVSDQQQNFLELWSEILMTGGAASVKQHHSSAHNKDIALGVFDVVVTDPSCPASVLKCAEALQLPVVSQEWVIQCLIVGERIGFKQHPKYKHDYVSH

Activity [1]: inactive | Kd (TP53-binding protein 1): Not Active | inhibition [2]: Dose-dependent effect | EC50 [3]: 105 µM
Compound: CN(C)C[C@H]1C2CCC(c3ccccc3)(C2)[C@H]1O (some centres undefined)
